Measurements from US20170101392A1, “PROCESSES FOR THE PREPARATION OF PESTICIDAL COMPOUNDS” (Dow AgroSciences LLC, priority 2013, published 2017).

Tests used:
[1] = test system: Green Peach Aphid ("GPA") (Myzus Persicae) (MYZUPE); assay: Bioassay on green peach aphid (GPA), foliar spray on infested cabbage seedlings; format: in vivo; conditions: 72 h, 200 ppm spray on cabbage leaves, live aphids counted after three days, Abbott's correction, read-out: MYZUPE rating (% Control of Mortality)
Source text: Bioassays on Green Peach Aphid (“GPA”) (Myzus Persicae) (MYZUPE.)
GPA is the most significant aphid pest of peach trees, causing decreased growth, shriveling of leaves, and the death of various tissues. It is also hazardous because it acts as a vector for the transport of plant viruses, such as potato virus Y and potato leafroll virus to members of the nightshade/potato family Solanaceae, and various mosaic viruses to many other food crops. GPA attacks such plants as broccoli, burdock, cabbage, carrot, cauliflower, daikon, eggplant, green beans, lettuce, macadamia, papaya, peppers, sweet potatoes, tomatoes, watercress and zucchini among other plants. GPA also attacks many ornamental crops such as carnations, chrysanthemum, flowering white cabbage, poinsettia and roses. GPA has developed resistance to many pesticides.
Several molecules disclosed herein were tested against GPA using procedures described below.
Cabbage seedling grown in 3-in pots, with 2-3 small (3-5 cm) true leaves, were used as test substrate. The seedlings were infested with […] (wingless adult and nymph stages) one day prior to chemical application. Four posts with individual seedlings were used for each treatment. Test compounds (2 mg) were dissolved in 2 mL of acetone/methanol (1:1) solvent, forming stock solutions of 1000 ppm test compound. The stock solutions were diluted 5× with 0.025% Tween 20 in water to obtain the solution at 200 ppm test compound. A hand-held aspirator-type sprayer was used for spraying a solution to both sides of the cabbage leaves until runoff. Reference plants (solvent check) were sprayed with the diluent only containing 20% by volume acetone/methanol (1:1) solvent. Treated plants were held in a holding room for three days at approximately 25° C. and ambient relative humidity (RH) prior to grading. Evaluation was conducted by counting the number of live aphids per plant under a microscope. Percent Control was measured by using Abbott's correction formula (W. S. Abbott, “A Method of Computing the Effectiveness of an Insecticide” J. Econ. Entomol 18 (1925), pp. 265-267) as follows.
Corrected % Control=100*(X−Y)/X • where • X=No. of live aphids on solvent check plants and • Y=No. of live aphids on treated plants
The results are indicated in the table entitled “Table 1: GPA (MYZUPE) and sweetpotato whitefly-crawler (BEMITA) Rating Table”.

[2] = test system: Sweetpotato Whitefly Crawler (Bemisia Tabaci) (BEMITA); assay: Bioassay on sweetpotato whitefly crawler, foliar spray on infested cotton plants; format: in vivo; conditions: 200 ppm spray on cotton leaves, live nymphs counted after 8-9 days, Abbott's correction, read-out: BEMITA rating (% Control of Mortality)
Source text: Bioassays on Sweetpotato Whitefly Crawler (Bemisia Tabaci) (BEMITA.)
The sweetpotato whitefly, Bemisia tabaci (Gennadius), has been recorded in the United States since the late 1800s. In 1986 in Florida, Bemisia tabaci became an extreme economic pest. Whiteflies usually feed on the lower surface of their host plant leaves. From the egg hatches a minute crawler stage that moves about the leaf until it inserts its microscopic, threadlike mouthparts to feed by sucking sap from the phloem. Adults and nymphs excrete honeydew (largely plant sugars from feeding on phloem), a sticky, viscous liquid in which dark sooty molds grow. Heavy infestations of adults and their progeny can cause seedling death, or reduction in vigor and yield of older plants, due simply to sap removal. The honeydew can stick cotton lint together, making it more difficult to gin and therefore reducing its value. Sooty mold grows on honeydew-covered substrates, obscuring the leaf and reducing photosynthesis, and reducing fruit quality grade. It transmitted plant-pathogenic viruses that had never affected cultivated crops and induced plant physiological disorders, such as tomato irregular ripening and squash silverleaf disorder. Whiteflies are resistant to many formerly effective insecticides.
Cotton plants grown in 3-inch pots, with 1 small (3-5 cm) true leaf, were used at test substrate. The plants were placed in a room with whitely adults. Adults were allowed to deposit eggs for 2-3 days. After a 2-3 day egg-laying period, plants were taken from the adult whitefly room. Adults were blown off leaves using a hand-held Devilbliss sprayer (23 psi). Plants with egg infestation (100-300 eggs per plant) were placed in a holding room for 5-6 days at 82° F. and 50% RH for egg hatch and crawler stage to develop. Four cotton plants were used for each treatment. Compounds (2 mg) were dissolved in 1 mL of acetone solvent, forming stock solutions of 2000 ppm. The stock solutions were diluted 10× with 0.025% Tween 20 in water to obtain a test solution at 200 ppm. A hand-held Devilbliss sprayer was used for spraying a solution to both sides of cotton leaf until runoff. Reference plants (solvent check) were sprayed with the diluent only. Treated plants were held in a holding room for 8-9 days at approximately 82° F. and 50% RH prior to grading. Evaluation was conducted by counting the number of live nymphs per plant under a microscope.

Row | SMILES | mortality at 200 ppm [1] [%] | mortality at 200 ppm [2] [%]
1 | O=C(CCCl)Nc1cn(-c2cccnc2)nc1Cl [Compound 5e, 3-Chloro-N-(3-chloro-1-(pyridine-3-yl)-1H-pyrazol-4-yl)propanamide] | 80 to 100 | 80 to 100
2 | CCN(C(=O)CCSCCC(F)(F)F)c1cn(-c2cccnc2)nc1Cl [Compound 8.5, N-(3-Chloro-1-(pyridin-3-yl)-1H-pyrazol-4-yl)-N-ethyl-3-((3,3,3-trifluropropyl)thio)propanamide] | 80 to 100 | 80 to 100
3 | CCN(C(=O)CC[S+]([O-])CCC(F)(F)F)c1cn(-c2cccnc2)nc1Cl (stereo not shown) [Compound 9.5, N-(3-Chloro-1-(pyridin-3-yl)-1H-pyrazol-4-yl)-N-ethyl-3-((3,3,3-trifluropropyl)sulfoxo)propanamide] | 80 to 100 | 80 to 100
4 | ClC1=NN(c2cccnc2)CC1 [Compound 5a, 3-(3-Chloro-4,5-dihydro-1H-pyrazol-1-yl)pyridine] | 0 to 80 | 0 to 80
5 | O=C(CCSCCC(F)(F)F)Nc1cn(-c2cccnc2)nc1Cl [Compound 5.5, N-(3-Chloro-1-(pyridin-3-yl)-1H-pyrazol-4-yl)-3-((3,3,3-trifluoropropyl)thio)-propanamide] | 80 to 100 | 0 to 80
